# Measurements: US20260345723A1, “Treatments for Opioid-Induced Respiratory Depression” (priority 2023, published 2026)
# Like-named read-outs stand apart in the source and are kept apart here.
# Assays:
# [1] = tested on: opioid-induced respiratory depression; experiment: Example 4: treatment of a subject prescribed a high level of opioids; assay type: in vivo, human; conditions: oral pill, concurrent with opioids
# Source text: A subject is prescribed a high level of opioids to treat a pain. The subject is concurrently administered RAP-103 to treat opioid-induced respiratory depression. RAP-103 is orally administered to the subject as a pill to treat the opioid-induced respiratory depression. After administration, the subject has no change in their respiratory rate and blood oxygen levels (e.g., maintains full respiratory function).
# CCR8 = conditions: mechanism involving CCR8; cited from earlier work
# [2] = tested on: morphine physical dependence; experiment: Morphine physical dependence (naloxone-precipitated withdrawal signs); assay type: in vivo, rat (male Sprague Dawley)
# Procedure: (§1) Adult male Sprague Dawley (226-275 g) were purchased from Taconic Laboratories and maintained on a 12-hour/12-hour light/dark cycle with the lights off at 9:30 a.m. in a temperature- and humidity-controlled animal care facility. For the duration of the experiment, rats were housed two per cage and given unrestricted access to food and water at all times when in the home cage.
# Rats were implanted (SC, flank area) with 75 mg morphine pellets that remained intact for 7 days. Beginning on the day of pellet implantation, rats received daily injections of saline or RAP-103 (0.001, 0.1 or 1 mg/kg, IP, delivered in […]) throughout chronic morphine exposure. On the test day, rats were transported to the testing room and allowed to acclimate for 60 min before naloxone hydrochloride (10 mg/kg, IP, delivered in a 1 ml/kg volume) was injected to precipitate withdrawal signs. Immediately after naloxone administration, rats were placed into individual observation boxes and observed for 60 min. A modified version of the Gellet-Holtzman scale was used to grade withdrawal signs. Wet dog shakes, teeth chattering, eye blinks, and paw tremor were evaluated as the number of qualitatively observed occurrences over the 60-min test time.
# (§2) Respiratory depression data were analyzed by two-way ANOVA (RAP-103 pretreatment×morphine treatment) followed by a Bonferroni's multiple comparison test. Physical dependence data were analyzed by a Student's t-test. Self-administration (SA) time-course data for heroin and sucrose were analyzed by two-way ANOVA (RAP-103 treatment x day) followed by a Bonferroni's multiple comparison test. SA PR challenge data were analyzed by a Student's t-test. Protein and mRNA data were analyzed by two-way ANOVA (RAP-103 pretreatment x morphine treatment) followed by a Newman-Keuls post-hoc analysis. In all cases, P<0.05 was considered statistically significant.
# CCR5 [3] = conditions: cited from earlier work
# CCR2 = conditions: cited from earlier work
# [4] = tested on: molecular hallmarks of neuropathic pain; conditions: previous research; cited from earlier work
# [5] = tested on: mu-opioid receptor (OPRM1)
# CCR5 [6] = tested on: CCR5
# [7] = assay type: in vivo, Rhesus macaque (Macaca mulatta); conditions: seven days
# [8] = tested on: heroin self-administration; experiment: Heroin intravenous self-administration (FR and PR); assay type: in vivo, rat (male Sprague Dawley); conditions: RAP-103 1 mg/kg IP
# Source text: as §1
# Rats were anesthetized using vaporized isoflurane delivered via nebulizer. An indwelling silastic catheter was threaded subcutaneously over the shoulder blade, inserted in the jugular vein and sutured in place. The catheter routed to a cotton back mount platform that was sutured below the skin between the shoulder blades. Post-operation, catheters were flushed daily with 0.2 ml of timentin (0.93 mg/mL) dissolved in heparinized saline and covered with magnetic aluminum caps.
# Following 5 days of post-operative recovery, rats began daily intravenous self-administration of heroin in Med-Associates operant chambers for at least 10 d. […] During IVSA, infusions of 0.1 mg/kg/inf heroin were rewarded to the animal after pressing the active lever. […]
# Progressive ratio (PR) schedules of drug delivery are used to determine the ‘motivational’ state of an animal and drug reinforcing efficacy. […] BP is a dependent measure used to quantify the degree to which the subject will work to get the next administration of the drug which serves as a reinforcer in the self-administration paradigm. […]
# as §2, with “In all cases, P<0.05 was considered statistically significant.” left out
# [9] = RAP-103 0.001, 0.1 mg/kg IP, P>0.05, reduced trend
# [10] = RAP-103 pretreatment 1 mg/kg IP + morphine, P<0.05
# [11] = RAP-103 only vs drug-naïve, P>0.05
substance,measurement,setting,value
D-Thr-D-Thr-D-Asn-D-Tyr-D-Thr [RAP-103],blood oxygen levels,[1],no change
same,respiratory rate,[1],no change
same,microglial chemotaxis,CCR8,inhibit
same,microglial morphological change,CCR8,inhibit
same,naloxone-precipitated eye blinking,[2]; [9],did not significantly impact
same,naloxone-precipitated wet dog shakes,[2]; [9],did not significantly impact
same,reduction of frequency of wet dog shakes,"[2]; RAP-103 1 mg/kg IP daily, morphine 75 mg pellet 7 d, naloxone 10 mg/kg IP, P<0.01",approximately 43%
same,reduction of frequency of eye blinking,"[2]; RAP-103 1 mg/kg IP daily, morphine 75 mg pellet 7 d, naloxone 10 mg/kg IP, P<0.05",approximately 59%
same,paw tremor,[2]; any dose of RAP-103,not affected
same,teeth chattering,[2]; any dose of RAP-103,not affected
same,"inhibition of chemokine ligand binding, CCR5",CCR5 [3],at least partially inhibits
same,"inhibition of chemokine ligand binding, CCR2",CCR2,at least partially inhibits
same,cell membrane ruffling,[4],downregulate
same,immune cell migration,[4],downregulate
same,phagocytosis,[4],downregulate
same,"OPRM1 protein levels, PFC","[5]; RAP-103 + morphine, vs drug-naïve (P<0.01) and morphine only (P<0.05)",significantly elevated
same,"OPRM1 protein levels, VTA",[5]; [10],normalized the morphine-induced enhancement in OPRM1 levels
same,"CCR5 protein levels, NAC",CCR5 [6]; [11],did not display significantly different levels
same,"CCR5 protein levels, VTA",CCR5 [6]; [11],not significantly different
same,"CCR5 protein levels, NAC",CCR5 [6]; [10],normalized morphine-induced deficits in CCR5 levels
same,"CCR5 protein levels, PFC","CCR5 [6]; rats receiving RAP-103 vs drug-naïve, P<0.05",lower CCR5 levels
same,"CXCR4 protein levels, VTA",CXCR4; RAP-103 1 mg/kg IP + morphine,did not alter morphine enhancement of CCR2 or CXCR4
same,"CXCR4 protein levels, NAC",CXCR4; [11],did not display significantly different levels
same,"CXCR4 protein levels, VTA",CXCR4; [11],not significantly different
same,acute toxicity,[7],no acute toxicity
same,body weights,[7],no RAP-103-related changes
same,clinical observations,[7],no RAP-103-related changes
same,"IBA1 mRNA levels, NAC","IBA1 mRNA; RAP-103 + morphine vs drug-naïve and morphine by itself, P<0.01",significantly enhanced
same,"IBA1 mRNA, PFC","IBA1 mRNA; RAP-103/morphine exposure, P>0.05",significant changes in GFAP or IBA1 were not detected
same,"IBA1 mRNA levels, VTA","IBA1 mRNA; RAP-103 pretreatment vs drug-naïve, P<0.05",significantly increased IBA1 mRNA levels
same,"microglial mRNA levels, VTA and NAC",IBA1 mRNA; morphine-naïve and morphine-abstinent rats,enhanced microglial mRNA levels
same,responding on the inactive lever,[8],did not impact responding on the inactive lever
same,heroin PR breakpoint,"[8]; PR challenge, P<0.05 vs saline",significantly lower breakpoints
same,"active lever responding (heroin SA, FR-1)","[8]; heroin 0.1 mg/kg/inf, days 8 (P<0.05), 9 and 10 (P<0.001)",significantly reduced active lever responding
